# From patent US11230525B2, “Organic sulfur compound, method for preparing same, and pharmaceutical composition for preventing or treating cancer or an inflammatory disease, containing same as active ingredient” (SOOKMYUNG WOMENS UNIVERSITY INDUSTRY-ACADEMIC COOPERATION …, priority 2016, dated 2022)
# Experiments:
# [1] = test system: renal cancer cell line (ACHN); test: Cancer proliferation inhibitory activity (SRB, GI50), ACHN; type: cell-based; details: Homo sapiens, 48 hours
# Method in brief: (§1)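 Plate cells in RPMI 1640 containing 10% fetal bovine serum (37 °C, humidified 5% CO2). Add compound (0.1 μM to 10 μM) or 0.1% DMSO alone and incubate 48 h. Fix with trichloroacetic acid, stain with SRB, wash, solubilise dye and measure OD540 to obtain GI50.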
# [2] = test system: breast cancer cell line (MDA-MB-231); test: Cancer proliferation inhibitory activity (SRB, GI50), MDA-MB-231; type: cell-based; details: Homo sapiens, 48 hours
# Method in brief: as §1
# [3] = test system: prostate cancer cell line (PC-3); test: Cancer proliferation inhibitory activity (SRB, GI50), PC-3; type: cell-based; details: Homo sapiens, 48 hours
# Method in brief: as §1
# [4] = test system: gastric cancer cell line (NUGC-3); test: Cancer proliferation inhibitory activity (SRB, GI50), NUGC-3; type: cell-based; details: Homo sapiens, 48 hours
# Method in brief: as §1
# [5] = test system: colorectal cancer cell line (HCT-15); test: Cancer proliferation inhibitory activity (SRB, GI50), HCT-15; type: cell-based; details: Homo sapiens, 48 hours
# Method in brief: as §1
# [6] = test system: lung cancer cell line (NCl-H23); test: Cancer proliferation inhibitory activity (SRB, GI50), NCI-H23; type: cell-based; details: Homo sapiens, 48 hours
# Method in brief: as §1
# HDAC 1 = HDAC 1 (Homo sapiens, UniProt Q13547); test: HDAC enzyme fluorescence assay, HDAC 1; type: biochemical; details: recombinant HDAC enzyme, Boc-Lys(acetyl)-AMC
# HDAC 1, sequence (Q13547 whole entry, species assumed): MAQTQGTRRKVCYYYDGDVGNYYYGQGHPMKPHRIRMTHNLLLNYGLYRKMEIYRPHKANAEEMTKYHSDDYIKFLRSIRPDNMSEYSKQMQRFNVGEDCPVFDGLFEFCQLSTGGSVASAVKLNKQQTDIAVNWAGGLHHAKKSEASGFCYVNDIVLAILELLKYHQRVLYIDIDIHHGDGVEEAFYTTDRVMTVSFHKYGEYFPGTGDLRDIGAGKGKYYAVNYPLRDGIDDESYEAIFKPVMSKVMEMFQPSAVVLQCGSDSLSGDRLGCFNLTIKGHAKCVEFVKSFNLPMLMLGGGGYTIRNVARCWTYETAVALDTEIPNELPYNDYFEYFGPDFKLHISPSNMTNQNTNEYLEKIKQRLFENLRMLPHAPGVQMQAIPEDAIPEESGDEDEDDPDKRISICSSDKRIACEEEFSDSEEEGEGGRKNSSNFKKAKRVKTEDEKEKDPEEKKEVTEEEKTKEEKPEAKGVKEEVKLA
# Procedure: Particularly, HDAC enzyme analysis was performed based on a uniform fluorescence emission assay. First, the compounds of examples of the present invention or comparative example 1 were diluted at different concentrations, which were treated to the analysis buffer containing 25 mM HEPES (pH 8.0), 137 mM NaCl, 1 mM MgCl2 and 2.7 mM KCL, followed by culture of the recombinant HDAC enzyme. 10 minutes later, Boc-Lys(acetyl)-AMC, the fluorescence inducing substrate, was added thereto, followed by further culture at 37° C. At this time, the concentration of the fluorescence inducing substrate and the culture time were adjusted according to the isotypes of the HDAC enzyme. The reaction was terminated by treating trypsin at room temperature for 20 minutes. The fluorescence intensity was measured using a fluorescence analyzer at an excitation wavelength of 380 nm and an emission wavelength of 460 nm, respectively. The inhibition rate was calculated from the measured fluorescence intensity of each well with comparing to that of the control well. IC50 of the compound was calculated by analyzing the dose-reaction inhibition curve.
# [7] = Body weight of mice in prostate cancer xenograft model; type: in vivo; details: 50 mg/kg (SAHA 100 mg/kg) once a day for 16 days
# Procedure: When the tumor size reached 40-60 mm^3, the mice were randomly grouped (4 mice per group), which were the non-treated group (10% dimethylacetamide, 10% tween 80 and 80% distilled water), the groups treated with the compounds of comparative examples 1 and 2 (Ajoene, 50 mg/kg), the groups treated with the compounds of examples 18 and 32 (50 mg/kg), and the group treated with the positive control SAHA (Vorinostat, 100 mg/kg). The treatment was performed once a day for 16 days in total. During the treatment, the tumor size was measured with a vernier caliper, followed by evaluation according to the following formula: length (mm)×width (mm)×height (mm)/2. The weights were measured regularly.
# Upon completion of the treatment (16 days later), the mice were sacrificed and the tumor weights were measured. All the experiments were performed according to the experiment protocol approved by Institutional Animal care and Use Committee (IACUC), Korea Research Institute of Bioscience and Biotechnology (KRIBB).
SMILES,GI50 [1] [nM],GI50 [2] [nM],GI50 [3] [nM],GI50 [4] [nM],GI50 [5] [nM],GI50 [6] [nM],IC50 (HDAC 1) [nM],changes in weight of mice / visible toxicity (FIG. 1) [7]
"CCCSS/C=C\C[S+]([O-])c1cccc(OC)c1 (stereo not shown) [Example 18, (Z)-1-(3-(3-methoxyphenylsulfinyl)prop-1-enyl)-2-propyldisulfane]",2060,2430,1920,1710,1340,1590,3520,only normal weight increases were observed
"COc1ccc([S+]([O-])C/C=C\SSCc2ccccc2)cc1 (stereo not shown) [Example 32, (Z)-1-benzyl-2-(3-(4-methoxyphenylsulfinyl)prop-1-enyl)disulfane]",3120,5880,3190,3820,1550,4370,4550,only normal weight increases were observed
